Data published in article PMC8808171, “Nonselective TRPC channel inhibition and suppression of aminoglycoside-induced premature termination codon readthrough by the small molecule AC1903” (The Journal of Biological Chemistry, 2022).

Tested on: JEB01 keratinocytes (COL17A1 R688X)
Assay: G418-induced PTC readthrough (Collagen XVII, Western blot) in JEB01 keratinocytes
Type: cell-based, human
Conditions: pretreatment 150 μM AC1903, increasing concentrations of G418 (Fig. 2E)
Protocol: Figure 2 Effect of AC1903 on PTC readthrough and G418 trafficking.A and B, DMS-114 (A) or TC-71 (B) cells were pretreated with indicated concentrations of AC1903 for 3 h followed by exposure to 400 μg/ml G418. After 3 h medium was replenished and at 24 h cell lysates were prepared and p53 levels were measured. C and E, DMS-114 (C) or JEB01 (E) cells were either left untreated or pretreated with 150 μM AC1903 for 3 h followed by exposure to indicated concentrations of G418 for another 3 h. At 24 h cell lysates were prepared and p53 (C) or Collagen XVII (E) levels were measured. In panels A–C, protein levels were measured by automated capillary electrophoresis Western analysis (using vinculin as loading control). In panel E, protein levels were measured by Western blot (using beta-actin as loading control). […] D, total intracellular levels of G418 were measured in the same lysates as in (C) (n = 5; data normalized to the highest response in each experiment; bars represent mean ± SD). F, total intracellular levels of G418 were measured in the same lysates as in (E) (n = 2; data normalized to the highest response in each experiment; bars represent mean ± SD). ∗ indicates statistically significant difference between samples according to one-way ANOVA (p < 0.05). […]

With `c1ccc(Cn2c(NCc3ccco3)nc3ccccc32)cc1` [AC1903] the “decline of full-length Collagen XVII” value was 45–80%.
